Assay results: patent publication US6972319B1, “Pituitary adenylate cyclase activating peptide (PACAP)receptor 3 (R3) agonists and their pharmacological methods of use” (priority 1999, dated 2005)
No end group written: not given here.

Key:
PACAP-R3 = target: T1, PACAP-R3 (Homo sapiens, UniProt P41587); assay: Cyclic AMP SPA on CHO cells expressing PACAP R3; format: cell-based; set-up: expressed in transfected cells; host or cells: CHO cells (Geneticin selection); conditions: for EC50: cAMP SPA, CHO cells transfected with PACAP-R3, concentration at which 50% of maximum PACAP27 activity is achieved, NA = no detectable activities, read-out: R3 EC50; for R3 Selectivity: ratio of EC50 at R2 versus EC50 at R3
T1 sequence (P41587 24-438): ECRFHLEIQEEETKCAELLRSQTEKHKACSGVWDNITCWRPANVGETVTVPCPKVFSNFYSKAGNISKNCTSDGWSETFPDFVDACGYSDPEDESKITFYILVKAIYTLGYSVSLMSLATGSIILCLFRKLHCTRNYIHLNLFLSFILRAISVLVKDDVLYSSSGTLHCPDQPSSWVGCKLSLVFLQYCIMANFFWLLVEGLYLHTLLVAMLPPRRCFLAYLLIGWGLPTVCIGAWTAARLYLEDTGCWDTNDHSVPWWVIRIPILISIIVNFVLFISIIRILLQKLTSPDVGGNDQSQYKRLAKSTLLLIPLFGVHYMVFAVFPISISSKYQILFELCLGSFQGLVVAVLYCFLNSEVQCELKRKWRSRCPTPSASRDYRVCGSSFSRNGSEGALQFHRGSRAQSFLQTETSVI
Summary of the method: (§1)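 cAMP SPA readout; CHO stable lines, 24 h culture before use. Peptide treatment 15 min, 37 C, buffer with IBMX 100 uM plus trypsin inhibitor and bacitracin. EC50 = conc. reaching half of max PACAP27 response; R3 selectivity = EC50(R2)/EC50(R3).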

PACAP-R2 = target: T2, PACAP-R2 (Homo sapiens, UniProt P32241); assay: Cyclic AMP SPA on CHO cells transfected with PACAP-R2; format: cell-based; conditions: cAMP SPA, concentration at which 50% of maximum PACAP27 activity is achieved, NA = no detectable activities, read-out: R2 EC50
T2 construct: expressed in transfected cells; host or cells: CHO cells
T2 sequence (P32241 31-457): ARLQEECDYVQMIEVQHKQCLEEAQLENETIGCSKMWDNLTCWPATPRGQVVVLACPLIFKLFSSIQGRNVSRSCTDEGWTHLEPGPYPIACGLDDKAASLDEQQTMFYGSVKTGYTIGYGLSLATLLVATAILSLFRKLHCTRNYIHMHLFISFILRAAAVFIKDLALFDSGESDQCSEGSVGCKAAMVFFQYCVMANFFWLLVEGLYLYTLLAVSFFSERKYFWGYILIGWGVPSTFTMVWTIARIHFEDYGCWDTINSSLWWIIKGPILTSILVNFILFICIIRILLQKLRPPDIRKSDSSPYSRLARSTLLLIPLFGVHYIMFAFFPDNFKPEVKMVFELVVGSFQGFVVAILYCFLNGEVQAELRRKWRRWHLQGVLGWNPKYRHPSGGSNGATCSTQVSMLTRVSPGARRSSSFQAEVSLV
Summary of the method: as §1

Row | Substance | EC50 (PACAP-R3) [nM] | R3 Selectivity (PACAP-R3) | EC50 (PACAP-R2) [nM]
1 | HSDAVFTDNYTRLRKQMAAKKYLNSIKNKI [Peptide R3P160] | 0.2 | 500 | 100
2 | HSDAVFTDNYTRLRKQMAAKKYLNSIKNKK [Peptide R3P161] | 0.2 | 300 | 60
3 | HSDAVFTDNYTRLRKQMAAKKYLNSIKNKN [Peptide R3P164] | 0.3 | 300 | 100
4 | HSDAVFTDNYTRLRKQMAAKKYLNSIKNKP [Peptide R3P165] | 0.5 | 300 | 150
5 | HSDAVFTDNYTRLRKQMAAKKYLNSIKNKR [Peptide R3P65] | 0.6 | 130 | 80
6 | HSDAVFTDNYTRLRKQMAAKKYLNSIKNKT [Peptide R3P168] | 0.2 | 300 | 60
7 | HSDAVFTDNYTRLRKQMAAKKYLNSIKNKV [Peptide R3P169] | 0.2 | 300 | 60
8 | HSDAVFTDNYTRLRKQMAAKKYLNSIKNLR [Peptide R3P142] | 0.2 | 30 | 6
9 | HSDAVFTDNYTRLRKQMAAKKYLNSIKNMR [Peptide R3P143] | 0.2 | 30 | 6
10 | HSDAVFTDNYTRLRKQMAAKKYLNSIKNNR [Peptide R3P144] | 3 | 100 | 300
11 | HSDAVFTDNYTRLRKQMAAKKYLNSIKNPR [Peptide R3P145] | 0.5 | 100 | 50
12 | HSDAVFTDNYTRLRKQMAAKKYLNSIKNQR [Peptide R3P146] | 0.3 | 100 | 30
13 | HSDAVFTDNYTRLRKQMAAKKYLNSIKNRI [rR3P174] | 0.2 | 90 | 18
14 | HSDAVFTDNYTRLRKQMAAKKYLNSIKNRR [Peptide R3P147] | 0.2 | 500 | 100
15 | HSDAVFTDNYTRLRKQMAAKKYLNSIKNSR [Peptide R3P148] | 0.3 | 100 | 30
16 | HSDAVFTDNYTRLRKQMAAKKYLNSIKNTR [Peptide R3P149] | 0.5 | 80 | 40
17 | HSDAVFTDNYTRLRKQMAAKKYLNSIKNVR [Peptide R3P150] | 0.8 | 50 | 40
18 | HSDAVFTDNYTRLRKQMAAKKYLNSILK [Peptide R3P50] | 0.13 | 6 | 0.7
19 | HSDAVFTDNYTRLRKQMAAKKYLNSILN [Peptide R3P47] | 0.12 | 6 | 0.7

Row | Substance | EC50 (PACAP-R3) [nM] | R3 Selectivity (PACAP-R3) | EC50 (PACAP-R2) [nM]
20 | HSDAVFTDNYTRLRKQMAAKKYLNSINNKR [Peptide R3P125] | 2 | 30 | 60
21 | HSDAVFTDNYTRLRKQMAAKKYLNSIPNKR [Peptide R3P126] | 1 | 200 | 200
22 | HSDAVFTDNYTRLRKQMAAKKYLNSIPNRI [rR3P179] | 1.5 | 150 | 230
23 | HSDAVFTDNYTRLRKQMAAKKYLNSIQNRI [rR3P184] | 0.37 | 30 | 10
24 | HSDAVFTDNYTRLRKQMAAKKYLNSIRNKR [Peptide R3P128] | 0.3 | 200 | 60
25 | HSDAVFTDNYTRLRKQMAAKKYLNSIRNRI [rR3P189] | 0.04 | 30 | 1.3
26 | HSDAVFTDNYTRLRKQMAAKKYLNSITNKR [Peptide R3P130] | 1 | 40 | 40
27 | HSDAVFTDNYTRLRKQMAAKKYLNSIVNKR [Peptide R3P131] | 0.3 | 70 | 20
28 | HSDAVFTDNYTRLRKQMAAKKYLNSIWNKR [Peptide R3P132] | 0.2 | 50 | 10
29 | HSDAVFTDNYTRLRKQMAAKKYLQSIKNKRY [Peptide R3P69] | 0.5 | 190 | 90
30 | HSDAVFTDNYTRLRKQMAEKKYLNSIKNKR [Peptide R3P99] | 1 | 40 | 40
31 | HSDAVFTDNYTRLRKQMAFKKYLNSIKNKR [Peptide R3P100] | 0.3 | 30 | 10
32 | HSDAVFTDNYTRLRKQMAGKKYLNSIKNKR [Peptide R3P101] | 1 | 400 | 400
33 | HSDAVFTDNYTRLRKQMAGKKYLNSIKNRI [rR3P175] | 2.2 | 180 | 400
34 | HSDAVFTDNYTRLRKQMAGKKYLNSIPNRI [rR3P180] | 6.7 | >20 | > 100
35 | HSDAVFTDNYTRLRKQMAHKKYLNSIKNKR [Peptide R3P102] | 60 | 5 | 300
36 | HSDAVFTDNYTRLRKQMAIKKYLNSIKNKR [Peptide R3P103] | 0.05 | 8 | 0.4
37 | HSDAVFTDNYTRLRKQMAKKKYLNSIKNRI [rR3P176] | 2 | 150 | 300
38 | HSDAVFTDNYTRLRKQMAKKKYLNSIPNRI [rR3P181] | 5.1 | 50 | 280

Row | Substance | EC50 (PACAP-R3) [nM] | R3 Selectivity (PACAP-R3) | EC50 (PACAP-R2) [nM]
39 | HSDAVFTDNYTRLRKQMAKKKYLNSIQNRI [rR3P186] | 1.6 | 44 | 70
40 | HSDAVFTDNYTRLRKQMAKKKYLNSIRNRI [rR3P191] | 2.7 | >80 | > 200
41 | HSDAVFTDNYTRLRKQMARKKYLNSIKNKR [Peptide R3P110] | 0.5 | 200 | 100
42 | HSDAVFTDNYTRLRKQMARKKYLNSIKNRI [rR3P177] | 1.6 | 70 | 110
43 | HSDAVFTDNYTRLRKQMARKKYLNSIPNRI [rR3P182] | 3.2 | 90 | 280
44 | HSDAVFTDNYTRLRKQMARKKYLNSIQNRI [rR3P187] | 1.6 | >80 | > 130
45 | HSDAVFTDNYTRLRKQMARKKYLNSIRNRI [rR3P192] | 0.6 | 60 | 40
46 | HSDAVFTDNYTRLRKQMASKKYLNSIKNRI [rR3P178] | 0.75 | 110 | 80
47 | HSDAVFTDNYTRLRKQMASKKYLNSIPNRI [rR3P183] | 5.4 | >30 | > 150
48 | HSDAVFTDNYTRLRKQMASKKYLNSIQNRI [rR3P188] | 2.2 | 70 | 150
49 | HSDAVFTDNYTRLRKQMASKKYLNSIRNRI [rR3P193] | 1.9 | 110 | 200
50 | HSDAVFTDNYTRLRKQMAVKKYLNDILN [Peptide R3P48] | 0.13 | 8 | 1
51 | HSDAVFTDNYTRLRKQMAVKKYLNDLKKGGT [Peptide R3P14] | 17 | 3 | 50
52 | HSDAVFTDNYTRLRKQMAVKKYLNSIKK [Peptide R3P41] | 0.08 | 100 | 8
53 | HSDAVFTDNYTRLRKQMAVKKYLNSIKK-NH2 [Peptide R3P8] | 1.4 | 1.5 | 2
54 | HSDAVFTDNYTRLRKQMAVKKYLNSIKKK [Peptide R3P58] | 0.32 | 170 | 55
55 | HSDAVFTDNYTRLRKQMAVKKYLNSIKKKR [Peptide R3P57] | 0.23 | 190 | 42
56 | HSDAVFTDNYTRLRKQMAVKKYLNSIKKKRY [Peptide R3P56] | 0.4 | 100 | 40
